Results reported in patent publication US20110171171A1, “BRIDGED SECONDARY AMINES AND USE THEREOF AS IAP BIR DOMAIN BINDING COMPOUNDS” (Aegera Therapeutics, Inc., priority 2008, published 2011).

Experiments:
Type in all cases: cell-based
[1] = tested on: Rheumatoid arthritis human fibroblast-like synoviocytes (HFLS-RA); assay: Synoviocytes + Fas antibody cell survival assay (Cell Titer-Glo); settings: with 300 ng/ml anti-human CD95 (Fas) antibody CH-11, 72 hours, read-out: EC50 synoviocyctes + FAS
Method: Rheumatoid arthritis human fibroblast-like synoviocytes (HFLS-RA, Cell Applications Inc.) were seeded in 96-well plates at 3000 cells per well in complete synoviocyte growth medium (Cell Applications Inc.) one day prior to treatment. Triplicate wells were treated for 72 hours compound in combination with 300 ng/ml anti-human CD95 (Fas) antibody (clone CH-11, Beckman Coulter/Immunotech). Cell survival was measured by Cell Titer-Glo Luminescent Assay (Promega).
(§1) EC50 values (50% cell survival in the presence of compound as compared to untreated controls) were calculated from survival curves using BioAssay software (CambridgeSoft, HCT116 and SKOV3 SAR) and GraphPad Prism (Graph Pad Software Inc., Synoviocyte SAR).

[2] = tested on: Colorectal carcinoma HCT116 cells; assay: HCT116 + ETR1 cell death assay (MTT, 72 hours); settings: with HGS ETR1 40 ng/ml
Method: Colorectal carcinoma HCT116 cells were cultured as monolayers in 96 well plates at a density of 2000 cells per well in McCoy's 5a medium (HyClone) supplemented with 2.2 g/L sodium bicarbonate (Gibco), 10% FBS (HyClone) and 1% penecillin/streptomycin (HyClone). 24 hours later, triplicate wells were treated with HGS ETR1 (40 ng/ml) in combination with compound. Cells were incubated in the presence of compound and HGS agonistic Trail receptor antibody, ETR1 (Mapatumamab, 40 ng/ml) for 72 hours. Metabolic viability of remaining cells was assessed by MTT (thiazolyl blue tetrazolium bromide, Sigma) assay.
as §1

[3] = tested on: Ovarian adenocarcinoma SKOV3 cells; assay: SKOV3 cell death assay (MTT, 72 hours); settings: Homo sapiens, SK-OV-3, compound alone
Method: Ovarian adenocarcinoma SKOV3 cells were cultured as monolayers in McCoy's 5a medium (HyClone) supplemented with 2.2 g/L sodium bicarbonate (Gibco), 10% FBS (HyClone) and 1% penicillin/streptomycin (HyClone). Cells were seeded in 96 well plates at 5000 cells/well. After 24 hours in culture, cells were treated with compound. Cells were incubated in the presence of compound for 72 hours. Metabolic viability of remaining cells was assessed by MTT (thiazolyl blue tetrazolium bromide, Sigma) assay.
as §1

Row | SMILES | EC50 [1] | EC50 [2] | EC50 [3]
1 | CN[C@@H](C)C(=O)N[C@H](C(=O)N1CCC[C@H]1CN(CCc1ccccc1)C(=O)CNC(=O)c1ccc(-c2ccc(C(=O)NCC(=O)N(CCc3ccccc3)C[C@@H]3CCCN3C(=O)[C@@H](NC(=O)[C@H](C)NC)C3CCCC3)cc2)cc1)C1CCCC1 [Compound 17] | < 0.1 µM | < 0.1 µM | < 0.1 µM
2 | CN[C@@H](C)C(=O)N[C@H](C(=O)N1CCC[C@H]1CN(CCc1ccccc1)C(=O)c1ccc(-c2ccc(C(=O)N(CCc3ccccc3)C[C@@H]3CCCN3C(=O)[C@@H](NC(=O)[C@H](C)NC)C3CC3)cc2)cc1)C1CC1 [Compound 22] | < 0.1 µM | < 0.1 µM | 
3 | CN[C@@H](C)C(=O)N[C@H](C(=O)N1CCC[C@H]1CN(CCc1ccc(F)cc1)C(=O)c1ccc2cc(C(=O)N(CCc3ccc(F)cc3)C[C@@H]3CCCN3C(=O)[C@@H](NC(=O)[C@H](C)NC)C3CCCCC3)ccc2c1)C1CCCCC1 [Compound 11] | < 0.1 µM | < 0.1 µM | 
4 | CN[C@@H](C)C(=O)N[C@H](C(=O)N1CCC[C@H]1CN(CCc1ccccc1)C(=O)c1ccc2cc(C(=O)N(CCc3ccccc3)C[C@@H]3CCCN3C(=O)[C@@H](NC(=O)[C@H](C)NC)C3CCC3)ccc2c1)C1CCC1 [Compound 19] | < 0.1 µM | < 0.1 µM | 
5 | CN[C@@H](C)C(=O)N[C@H](C(=O)N1CCC[C@H]1CN(CCc1ccccc1)C(=O)c1ccc(-c2ccc(C(=O)N(CCc3ccccc3)C[C@@H]3CCCN3C(=O)[C@@H](NC(=O)[C@H](C)NC)C3CCCC3)cc2)cc1)C1CCCC1 [Compound 23] | < 0.1 µM | < 0.1 µM | 
6 | CN[C@@H](C)C(=O)N[C@H](C(=O)N1CCC[C@H]1CN(CCc1ccccc1)C(=O)CNC(=O)c1ccc(-c2ccc(C(=O)NCC(=O)N(CCc3ccccc3)C[C@@H]3CCCN3C(=O)[C@@H](NC(=O)[C@H](C)NC)C3CCCCC3)cc2)cc1)C1CCCCC1 [Compound 2] | < 0.1 µM | < 0.1 µM | < 0.1 µM
7 | CN[C@@H](C)C(=O)N[C@H](C(=O)N1CCC[C@H]1CN(CCc1ccccc1)C(=O)c1ccc(-c2ccc(C(=O)N(CCc3ccccc3)C[C@@H]3CCCN3C(=O)[C@@H](NC(=O)[C@H](C)NC)C3CCCCC3)cc2)cc1)C1CCCCC1 [Compound 18] | < 0.1 µM | < 0.1 µM | 
8 | CN[C@@H](C)C(=O)N[C@H](C(=O)N1CCC[C@H]1CN(CCc1ccc(F)cc1)C(=O)c1ccc(-c2ccc(C(=O)N(CCc3ccc(F)cc3)C[C@@H]3CCCN3C(=O)[C@@H](NC(=O)[C@H](C)NC)C3CCCCC3)cc2)cc1)C1CCCCC1 [Compound 6] | < 0.1 µM | < 0.1 µM | < 0.1 µM
9 | CN[C@@H](C)C(=O)N[C@H](C(=O)N1CCC[C@H]1CN(CCc1ccc(F)cc1)C(=O)CNC(=O)c1ccc(-c2ccc(C(=O)NCC(=O)N(CCc3ccc(F)cc3)C[C@@H]3CCCN3C(=O)[C@@H](NC(=O)[C@H](C)NC)C3CCCCC3)cc2)cc1)C1CCCCC1 [Compound 8] | < 0.1 µM | < 0.1 µM | < 0.1 µM
10 | CN[C@@H](C)C(=O)N[C@H](C(=O)N1CCC[C@H]1CN(CCc1ccccc1)C(=O)c1ccc(-c2ccc(C(=O)N(CCc3ccccc3)C[C@@H]3CCCN3C(=O)[C@@H](NC(=O)[C@H](C)NC)C3CCC3)cc2)cc1)C1CCC1 [Compound 21] | < 0.1 µM | < 0.1 µM | 
